One experiment deals with HeLa. Kind of experiment: Proliferation assay (crystal violet), HeLa. The format is cell-based. The settings on record: Homo sapiens, HeLa, 96 h, HeLa cells; 4 days incubation; crystal violet staining; read-out: IC50 inhibition of proliferation, HeLa. The essentials:
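Absorbance at 595 nm of crystal-violet-stained cells after 4 days' exposure to 0.001–10 μM compound (0.5% DMSO). Values normalized to a day-0 plate (0%) and untreated cells (100%); IC50 by 4-parameter fit.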

For a further experiment, the target named is T1, CDK2/CycE (Homo sapiens, UniProt P24941).
T1 construct: GST; purchased ProQinase GmbH (Freiburg, Germany); host or cells: insect cells (Sf9)
Kind of experiment: CDK2/CycE kinase assay (TR-FRET). The format is biochemical. The settings on record: avg, read-out: CDK2 avg (IC50 [mol/l]). A digest of the protocol:
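Read-out is a TR-FRET 665/620 nm emission ratio from EDTA-stopped reactions detected with anti-pRB(pSer807/pSer811), Eu-labelled anti-mouse IgG and streptavidin-XL665, scaled between no-enzyme and uninhibited wells. Reaction: Sf9-expressed GST-CDK2/GST-CycE, 15 min compound preincubation, 10 μM ATP, 0.75 μM biotin-peptide, 25 min, 22° C., pH 8.0 Tris buffer.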

For `Cc1nsc(Nc2ccc(C#N)cn2)c1C(=O)Nc1ccc(OC[C@H]2CCN(CC(F)(F)F)C2)nc1` [Example 405, 5-[(5-Cyanopyridin-2-yl)amino]-3-methyl-N-(6-{[(35)-1-(2,2,2-trifluoroethyl)pyrrolidin-3-yl]methoxy}pyridin-3-yl)-1,2-thiazole-4-carboxamide], the IC50 with HeLa worked out at 440 nM.

For the compound `Cc1nsc(Nc2cnc(C(F)(F)F)cn2)c1C(=O)Nc1ccc(O[C@@H]2CN(CCC(F)(F)F)C[C@@H]2F)nc1` [Example 409, N-(6-{[(3R,4S)-4-Fluoro-1-(3,3,3-trifluoropropyl)pyrrolidin-3-yl]oxy}pyridin-3-yl)-3-methyl-5-{[5-(trifluoromethyl)pyrazin-2-yl]amino}-1,2-thiazole-4-carboxamide], the IC50 on CDK2/CycE is greater than 20000 nM; with HeLa it was 190 nM.

Take `Cc1nsc(Nc2cnc(C(F)(F)F)cn2)c1C(=O)Nc1ccc(F)c(O[C@@H]2CCN(CC(F)F)C2)c1` [Example 412, N-(3-{[(3R)-1-(2,2-Difluoroethyl)pyrrolidin-3-yl]oxy}-4-fluorophenyl)-3-methyl-5-{[5-(trifluoromethyl)pyrazin-2-yl]amino}-1,2-thiazole-4-carboxamide]: the IC50 on CDK2/CycE was greater than 20000 nM; in the experiment with HeLa, 260 nM.

For the compound `Cc1nsc(Nc2cnc(C(F)(F)F)cn2)c1C(=O)Nc1ccc(OC[C@H]2CCCN(CCC(F)(F)F)C2)nc1` [Example 378, 3-methyl-5-{[5-(trifluoromethyl)pyrazin-2-yl]amino}-N-(6-{[(3S)-1-(3,3,3-trifluoropropyl)piperidin-3-yl]methoxy}pyridin-3-yl)-1,2-thiazole-4-carboxamide], the IC50 on CDK2/CycE is greater than 20000 nM; in the experiment on HeLa it was 290 nM.

Take `Cc1nsc(Nc2cncc(C(F)(F)F)n2)c1C(=O)Nc1ccc(OCCN(C)C(=O)OC(C)(C)C)nc1` [Example 430, tert-Butyl methyl{2-[(5-{[(3-methyl-5-{[6-(trifluoromethyl)pyrazin-2-yl]amino}-1,2-thiazol-4-yl)carbonyl]amino}pyridin-2-yl)oxy]ethyl}carbannate]: the figures for the IC50 on CDK2/CycE and with HeLa were greater than 20000 nM and 920 nM, respectively.

On to `Cc1nsc(Nc2cnc(C(F)(F)F)cn2)c1C(=O)Nc1ccc(OCCCNC(=O)C(F)(F)F)nc1` [Example 428, 3-Methyl-N-(6-{3-[(trifluoroacetyl)amino]propoxy}pyridin-3-yl)-5-{[5-(trifluoro-methyl)pyrazin-2-yl]amino}-1,2-thiazole-4-carboxamide], for which the IC50 at CDK2/CycE was greater than 20000 nM; in the experiment on HeLa it was 1300 nM.

Take `Cc1nsc(Nc2cnc(C(F)(F)F)cn2)c1C(=O)Nc1ccc(OC2CCN(C(=O)OC(C)(C)C)CC2)nc1` [Example 5, tert-Butyl 4-[(5-{[(3-methyl-5-{[5-(trifluoromethyl)pyrazin-2-yl]amino}-1,2-thiazol-4-yl)carbonyl]amino}pyridin-2-yl)oxy]piperidine-1-carboxylate]: the IC50 on CDK2/CycE was no less than 20000 nM; in the experiment on HeLa it was 560 nM.

For the compound `Cc1nsc(Nc2cnc(C(F)(F)F)cn2)c1C(=O)Nc1ccc(F)c(OC[C@@H]2CCN(CC(F)F)C2)c1` [Example 403, N-(3-{[(3R)-1-(2,2-difluoroethyl)pyrrolidin-3-yl]methoxy}-4-fluorophenyl)-3-methyl-5-{[5-(trifluoromethyl)pyrazin-2-yl]amino}-1,2-thiazole-4-carboxamide], the IC50 at CDK2/CycE is greater than 20000 nM; with HeLa, 450 nM.

Take `Cc1nsc(Nc2ccc(C#N)cn2)c1C(=O)Nc1ccc(OC2CCCN(CC(F)(F)F)C2)nc1` (centres unmarked) [Example 40, 5-[(5-Cyanopyridin-2-yl)amino]-3-methyl-N-(6-{[1-(2,2,2-trifluoroethyl)piperidin-3-yl]oxy}pyridin-3-yl)-1,2-thiazole-4-carboxamide]: the IC50 on CDK2/CycE is no less than 20000 nM; in the experiment on HeLa, 540 nM.

With `Cc1nsc(Nc2cnc3ccccc3n2)c1C(=O)Nc1cccc(C(=O)N2CCN(C(=O)OC(C)(C)C)CC2)c1` [Example 55, tert-Butyl 4-[3-({[3-methyl-5-(quinoxalin-2-ylamino)-1,2-thiazol-4-yl]carbonyl}amino)-benzoyl]piperazine-1-carboxylate], the IC50 was no less than 20000 nM on CDK2/CycE and 10000 nM with HeLa.

For `Cc1nsc(Nc2cnc3ccccc3n2)c1C(=O)Nc1cccc(C(=O)O)c1` [Example 51, 3-({[3-Methyl-5-(quinoxalin-2-ylamino)-1,2-thiazol-4-yl]carbonyl}amino)benzoic acid], the IC50 on CDK2/CycE was no less than 20000 nM; with HeLa, 10000 nM.

`Cc1nsc(Nc2cnc(C(F)(F)F)cn2)c1C(=O)Nc1ccc(OCC2CCN(CC(F)F)CC2(F)F)nc1` (centres unmarked) [Example 401, N-(6-{[1-(2,2-difluoroethyl)-3,3-difluoropiperidin-4-yl]methoxy}pyridin-3-yl)-3-methyl-5-{[5-(trifluoromethyl)pyrazin-2-yl]amino}-1,2-thiazole-4-carboxamide]: the IC50 at CDK2/CycE was greater than 20000 nM; with HeLa it was 430 nM.

As for `Cc1nsc(Nc2cnc(C(F)(F)F)cn2)c1C(=O)Nc1ccc(OCCNC(=O)C(F)(F)F)nc1` [Example 425, 3-Methyl-N-(6-{2-[(trifluoroacetyl)amino]ethoxy}pyridin-3-yl)-5-{[5-(trifluoro-methyl)pyrazin-2-yl]amino}-1,2-thiazole-4-carboxamide], the IC50 at CDK2/CycE was no less than 20000 nM; in the experiment with HeLa it was 1300 nM.

Turning to `Cc1nsc(Nc2cnc(C(F)(F)F)cn2)c1C(=O)Nc1ccc(F)c(OC[C@H]2CCCN(CC(F)F)C2)c1` [Example 400, N-(3-{[(3S)-1-(2,2-difluoroethyl)piperidin-3-yl]methoxy}-4-fluorophenyl)-3-methyl-5-{[5-(trifluoromethyl)pyrazin-2-yl]amino}-1,2-thiazole-4-carboxamide], the IC50 at CDK2/CycE is greater than 20000 nM; in the experiment on HeLa, 770 nM.

As for `Cc1nsc(Nc2nc3c(C(F)(F)F)cccc3s2)c1C(=O)Nc1ccc(OCCO)c(F)c1` [Example 4, N-[3-Fluoro-4-(2-hydroxyethoxy)phenyl]-3-methyl-5-{[4-(trifluoromethyl)-1,3-benzothiazol-2-yl]amino}-1,2-thiazole-4-carboxamide], the IC50 is no less than 20000 nM on CDK2/CycE and 1800 nM in the experiment on HeLa.

With `Cc1nsc(Nc2cc(C#N)ccn2)c1C(=O)Nc1ccc(OCCCNC(=O)OC(C)(C)C)nc1` [Example 43, tert-Butyl [3-({5-[({5-[(4-cyanopyridin-2-yl)amino]-3-methyl-1,2-thiazol-4-yl}-carbonyl)amino]pyridin-2-yl}oxy)propyl]carbamate], the IC50 at CDK2/CycE was no less than 20000 nM; in the experiment with HeLa, 10000 nM.

With `Cc1nsc(Nc2cnc3ccccc3n2)c1C(=O)Nc1cccc(NC(=O)C(F)(F)F)c1` [Example 432, 3-Methyl-5-(quinoxalin-2-ylamino)-N-{3-[(trifluoroacetyl)amino]phenyl}-1,2-thiazole-4-carboxamide], the IC50 was greater than 20000 nM at CDK2/CycE and greater than 10000 nM in the experiment with HeLa.

For the compound `CCCN1CCC(COc2ccc(NC(=O)c3c(C)nsc3Nc3cnc(C(F)(F)F)cn3)cn2)C(F)(F)C1` (centres unmarked) [Example 394, N-{6-[(3,3-difluoro-1-propylpiperidin-4-yl)methoxy]pyridin-3-yl}-3-methyl-5-{[5-(trifluoromethyl)pyrazin-2-yl]amino}-1,2-thiazole-4-carboxamide], the IC50 is greater than 20000 nM on CDK2/CycE and 380 nM in the experiment with HeLa.

Regarding `Cc1nsc(Nc2cnccn2)c1C(=O)Nc1ccc(OCCCNC(=O)OC(C)(C)C)nc1` [Example 47, tert-Butyl (3-{[5-({[3-methyl-5-(pyrazin-2-ylamino)-1,2-thiazol-4-yl]carbonyl}-amino)pyridin-2-yl]oxy}propyl)carbamate], the IC50 at CDK2/CycE is no less than 20000 nM; in the experiment on HeLa it was 10000 nM.

For the compound `Cc1nsc(Nc2cnc(C(F)(F)F)cn2)c1C(=O)Nc1ccc(F)c(O[C@H]2CCN(CC(F)(F)F)C2)c1` [Example 416, N-(4-Fluoro-3-{[(35)-1-(2,2,2-trifluoroethyl)pyrrolidin-3-yl]oxy}phenyl)-3-methyl-5-{[5-(trifluoromethyl)pyrazin-2-yl]amino}-1,2-thiazole-4-carboxamide], the IC50 at CDK2/CycE was greater than 20000 nM; in the experiment on HeLa, 250 nM.

Consider `Cc1nsc(Nc2cnc3ccccc3n2)c1C(=O)Nc1cccc(C(=O)N2CCOCC2)c1` [Example 52, 3-Methyl-N-[3-(morpholin-4-ylcarbonyl)phenyl]-5-(quinoxalin-2-ylamino)-1,2-thiazole-4-carboxamide], for which the IC50 is no less than 20000 nM at CDK2/CycE and 10000 nM in the experiment on HeLa.

Take `CCN1CC[C@H](Oc2ccc(NC(=O)c3c(C)nsc3Nc3cnc(C(F)(F)F)cn3)cn2)[C@H](F)C1` [Example 424, N-(6-{[(3R,4S)-1-Ethyl-3-fluoropiperidin-4-yl]oxy}pyridin-3-yl)-3-methyl-5-{[5-(trifluoromethyl)pyrazin-2-yl]amino}-1,2-thiazole-4-carboxamide]: the IC50 in the experiment with HeLa turned out to be 530 nM.

For the compound `Cc1nsc(Nc2ccc(C#N)cn2)c1C(=O)Nc1ccc(Nc2ccc(F)c(F)c2)nc1` [Example 433, 5-[(5-Cyanopyridin-2-yl)amino]-N-{6-[(3,4-difluorophenyl)amino]pyridin-3-yl}-3-methyl-1,2-thiazole-4-carboxamide], in the experiment on HeLa, the IC50 was 5400 nM.

As for `COCCOc1ccc(NC(=O)c2c(C)nsc2Nc2nc3c(C(F)(F)F)cccc3s2)cn1` [Example 3, N-[6-(2-Methoxyethoxy)pyridin-3-yl]-3-methyl-5-{[4-(trifluoromethyl)-1,3-benzo-thiazol-2-yl]amino}-1,2-thiazole-4-carboxamide], the IC50 in the experiment with HeLa is 910 nM.

These data come from patent US20170334899A1, “AMINO-SUBSTITUTED ISOTHIAZOLES” (Bayer Pharma Aktiengesellschaft, priority 2014, published 2017).
